Measured values: patent US11647752B2 (priority 2020, dated 2023)
“And” between values parts separate entries of the source, which are not always exact repeats. Equal entries are not always repeated. Where two headings read alike, the source gives them in different places.

What was measured:
[1] = test system: Ralstonia solanacearum in tobacco roots; type: in vivo; conditions: for Amount of Ralstonia solanacearum in the roots: 12 h of inoculation
[2] = test system: Ralstonia solanacearum (pathogen HF-1-1); type: cell-based; conditions: NaHS 0, 200, 400, 600, 800 mg/L in liquid culture, 12 h, 37° C.
[3] = test system: Ralstonia solanacearum (tobacco bacterial wilt pathogen HF-1-1); type: cell-based; conditions: 50 μL per hole, 37° C., 12 h

SMILES | Amount of Ralstonia solanacearum in the roots ([1]; N- (10 mL 0.8 mmol hydroxylamine)) | Biomass of the pathogen HF-1-1 (OD600) [2] | Diameter of inhibition zone ([3]; NaHS 200 mg/L) | Diameter of inhibition zone ([3]; NaHS 400 mg/L) | Diameter of inhibition zone ([3]; NaHS 600 mg/L) | Diameter of inhibition zone ([3]; NaHS 800 mg/L) | Amount of Ralstonia solanacearum in the roots ([1]; N200 (NaHS 200 mg/L)) | Content of Ralstonia solanacearum in the tobacco roots compared with CK and N- groups ([1]; N200-N800 (NaHS 200-800 mg/L), 24 h and 36 h) | Amount of Ralstonia solanacearum in the roots ([1]; N400 (NaHS 400 mg/L)) | Amount of Ralstonia solanacearum in the roots ([1]; N600 (NaHS 600 mg/L)) | Amount of Ralstonia solanacearum in the roots ([1]; N800 (NaHS 800 mg/L)) | Decrease of number of Ralstonia solanacearum colonized on tobacco roots compared with control group ([1]; NaHS 800 mg/L, 36 hours)
NO [H2S inhibitor, hydroxylamine, reference compound] | 1.38 ×10^4 CFU/g |  |  |  |  |  |  |  |  |  |  | 
[Na+].[SH-] [NaHS] |  | decreased with the increase of its concentration | 11.20±0.72 mm and 11.20 mm | 14.61±0.93 mm and 14.61 mm | 19.43±0.41 mm and 19.43 mm | 21.21±1.22 mm and 21.21 mm | 1.36 ×10^4 CFU/g | relatively lower | 1.39 ×10^4 CFU/g | 1.40 ×10^4 CFU/g | 1.37 ×10^4 CFU/g | 98.32%
